Legend:
Format in all cases: cell-based
[1] = test system: colorectal cancer cell line HT-29 cells; test: Growth inhibitory effect against cancer cell lines (3H-thymidine uptake), HT-29; settings: Homo sapiens, HT-29, inhibition of 3H-thymidine uptake; test substance 18 hrs, then 3H-thymidine 6 hrs; triplicate
Method in brief: (§1)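 Cells seeded at 1.0×10^4/well, grown 24 hrs, then exposed to compound in DMSO for 18 hrs before 6 hrs pulse with ^3H-thymidine (0.25 μCi/well). Harvested cell-incorporated radioactivity counted; IC50 is the concentration halving uptake versus DMSO control, triplicate.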

[2] = test system: Renal cancer cell line ACHN cell; test: Growth inhibitory effect against cancer cell lines (3H-thymidine uptake), ACHN; settings: Homo sapiens, ACHN
Method in brief: as §1

p27 protein = p27 protein induction test (Western blotting); settings: test substance (0.1 1M), 24 hrs, ACHN cells or HT-29 cells, compared to DMSO, n=2
Protocol: ACHN cells or HT-29 cells were cultured in a 6 well plate at 2.5×10^5 cells/1.8 mL/well for 24 hrs, a test substance ([…]) dissolved in DMSO was added. After 24 hrs, cells were detached using trypsin-EDTA (ethylene diamine tetraacetic acid) and solubilized with NuPAGE LDS sample buffer (Invitrogen). Using an RC DC protein assay kit (BIO-RAD), the protein concentration of the sample was quantitated, and a sample in an amount corresponding to 10 μg of BSA (bovine serum albumin) was analyzed by Western blotting using an anti-p27 antibody. The density of the band stained with the anti-p27 antibody was measured by a densitometer to quantify the amount of p27 protein. As a control, DMSO was used and the test was performed with n=2 and the average protein amount was determined.

p15 protein = test: Evaluation of p15 induction activity (Western blotting); settings: test substance 0.1 μM, 24 hrs, ACHN cells or HT-29 cells, compared to DMSO, n=2
Method in brief: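 p15 protein quantified by densitometry of anti-p15 Western blots (10 μg protein per lane, mean of n=2). Samples came from HT-29 or ACHN cells given 0.1 μM compound for 24 h after 24 h plating, with DMSO as control.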

Structure (SMILES)	IC50 [1] [nM]	IC50 [2] [nM]	fold induction at 0.1 µM (p27 protein)	fold induction at 0.1 µM (p15 protein)
CN(C)c1ccc(Nc2cc(=O)n(C)c3c2c(=O)n(C2CC2)c(=O)n3-c2ccccc2F)cc1 [Example 1-114]	100 to 1000	100 to 1000	≥ 1.5	≥ 1.5
C#Cc1ccc(Nc2cc(=O)n(C)c3c2c(=O)n(C2CC2)c(=O)n3-c2cccc(NS(C)(=O)=O)c2)c(Cl)c1 [Example 1-337]	< 10	10 to 100	≥ 1.5	≥ 1.5
CC(=O)Nc1cccc(-n2c(=O)n(C3CC3)c(=O)c3c(Nc4ccc(Br)cc4F)cc(=O)n(C)c32)c1 [Example 1-245]	< 10	10 to 100	≥ 1.5	≥ 1.5
C#Cc1ccc(Nc2cc(=O)n(C)c3c2c(=O)n(C2CC2)c(=O)n3-c2ccccc2)cc1 [Example 1-222]	10 to 100	100 to 1000	≥ 1.5	≥ 1.5
Cn1c(=O)cc(Nc2ccc(Br)cc2F)c2c(=O)n(C3CC3)c(=O)n(-c3ccccc3)c21 [Example 1-152]	10 to 100	100 to 1000	≥ 1.5	≥ 1.5
C#Cc1ccc(Nc2cc(=O)n(C)c3c2c(=O)n(C2CC2)c(=O)n3-c2cccc(NS(=O)(=O)CC)c2)cc1 [Example 1-298]	< 10	10 to 100	≥ 1.5	≥ 1.5
CNc1cccc(-n2c(=O)n(C3CC3)c(=O)c3c(Nc4ccc(Br)cc4F)cc(=O)n(C)c32)c1 [Example 1-283]	10 to 100	100 to 1000	≥ 1.5	≥ 1.5
Cn1c(=O)cc(Nc2ccc(Br)cc2F)c2c(=O)n(C3CC3)c(=O)n(-c3cccc(NS(C)(=O)=O)c3)c21 [Example 1-1, N-{3-[5-(4-bromo-2-fluoro-phenylamino)-3-cyclopropyl-8-methyl-2,4,7-trioxo-3,4,7,8-tetrahydro-2H-pyrido[2,3-d]pyrimidin-1-yl]phenyl}-methanesulfonamide]	< 10	10 to 100	≥ 1.5	≥ 1.5
CN(C)S(=O)(=O)c1ccc(-n2c(=O)n(C3CC3)c(=O)c3c(Nc4ccc(Br)cc4F)cc(=O)n(C)c32)cc1 [Example 1-226]	10 to 100	100 to 1000	≥ 1.5	≥ 1.5
Cn1c(=O)cc(Nc2ccc(Br)cc2F)c2c(=O)n(C3CC3)c(=O)n(-c3cccc(NS(=O)(=O)CCl)c3)c21 [Example 1-282]	10 to 100	100 to 1000	≥ 1.5	≥ 1.5
Cn1c(=O)cc(Nc2ccc(Br)cc2F)c2c(=O)n(C3CC3)c(=O)n(-c3cccc(CCCO)c3)c21 [Example 1-243]	10 to 100	100 to 1000	≥ 1.5	≥ 1.5
Cn1c(=O)cc(Nc2ccc(Br)cc2F)c2c(=O)n(C3CC3)c(=O)n(-c3cccc(N4CCOCC4=O)c3)c21 [Example 1-219]	10 to 100	100 to 1000	≥ 1.5	≥ 1.5
C#Cc1ccc(Nc2cc(=O)n(C)c3c2c(=O)n(C2CC2)c(=O)n3-c2cccc(NS(C)(=O)=O)c2)cc1 [Example 1-290]	< 10	10 to 100	≥ 1.5	≥ 1.5
CC(=O)Nc1cccc(-n2c(=O)n(C3CC3)c(=O)c3c(Nc4ccc(I)cc4F)cc(=O)n(C)c32)c1 [Example 1-297]	< 10	10 to 100	≥ 1.5	≥ 1.5
CNC(=O)Nc1cccc(-n2c(=O)n(C3CC3)c(=O)c3c(Nc4ccc(Br)cc4F)cc(=O)n(C)c32)c1 [Example 1-325]	10 to 100	100 to 1000	≥ 1.5	≥ 1.5
CC(C)C(=O)Nc1cccc(-n2c(=O)n(C3CC3)c(=O)c3c(Nc4ccc(Br)cc4F)cc(=O)n(C)c32)c1 [Example 1-287]	10 to 100	100 to 1000	≥ 1.5	≥ 1.5
Cn1c(=O)cc(Nc2ccc(I)cc2Cl)c2c(=O)n(C3CC3)c(=O)n(-c3cccc(NS(C)(=O)=O)c3)c21 [Example 1-322]	< 10	10 to 100	≥ 1.5	≥ 1.5
Cn1c(=O)cc(Nc2ccc(Br)cc2F)c2c(=O)n(C3CC3)c(=O)n(-c3cccc(NS(=O)(=O)c4ccccc4)c3)c21 [Example 1-284]	10 to 100	100 to 1000	≥ 1.5	≥ 1.5
Cn1c(=O)cc(Nc2ccc(I)cc2)c2c(=O)n(C3CC3)c(=O)n(-c3cccc(NS(C)(=O)=O)c3)c21 [Example 1-302]	< 10	10 to 100	≥ 1.5	–

The next lines start with results.

IC50 [1] [nM]	IC50 [2] [nM]	Structure (SMILES)	fold induction at 0.1 µM (p27 protein)	fold induction at 0.1 µM (p15 protein)
< 10	10 to 100	Cc1c(=O)n(C)c(Nc2ccc(I)cc2F)c2c(=O)n(C3CC3)c(=O)n(-c3cccc(N4CC(=O)NC4=O)c3)c12 [Example 4-109]	≥ 1.5	≥ 1.5
< 10	10 to 100	CSc1ccc(Nc2c3c(=O)n(C4CC4)c(=O)n(-c4cccc(NS(C)(=O)=O)c4)c3c(C)c(=O)n2C)c(F)c1 [Example 4-106]	≥ 1.5	≥ 1.5
< 10	100 to 1000	Cc1c(=O)n(C)c(Nc2ccc(I)cc2F)c2c(=O)n(C3CC3)c(=O)n(-c3ccc(NS(C)(=O)=O)c(Cl)c3)c12 [Example 4-116]	≥ 1.5	≥ 1.5
< 10	10 to 100	CCS(=O)(=O)Nc1ccc(-n2c(=O)n(C3CC3)c(=O)c3c(Nc4ccc(I)cc4F)n(C)c(=O)c(C)c32)cc1 [Example 4-77]	≥ 1.5	≥ 1.5
< 10	< 10	Cc1c(=O)n(C)c(Nc2ccc(I)cc2F)c2c(=O)n(C3CC3)c(=O)n(-c3cccc(NC=O)c3)c12 [Example 4-113]	≥ 1.5	≥ 1.5
< 10	10 to 100	Cc1c(=O)n(C)c(Nc2ccc(I)cc2F)c2c(=O)n(C3CC3)c(=O)n(-c3ccc4cn[nH]c4c3)c12 [Example 4-115]	≥ 1.5	≥ 1.5
< 10	10 to 100	CONC(=O)Nc1cccc(-n2c(=O)n(C3CC3)c(=O)c3c(Nc4ccc(I)cc4F)n(C)c(=O)c(C)c32)c1 [Example 4-74]	≥ 1.5	≥ 1.5
< 10	10 to 100	C=Cc1ccc(Nc2c3c(=O)n(C4CC4)c(=O)n(-c4cccc(NC(C)=O)c4)c3c(C)c(=O)n2C)c(F)c1 [Example 4-11]	≥ 1.5	≥ 1.5
< 10	10 to 100	CSc1ccc(Nc2c3c(=O)n(C4CC4)c(=O)n(-c4cccc(NC(C)=O)c4)c3c(C)c(=O)n2C)c(F)c1 [Example 4-105]	≥ 1.5	≥ 1.5
< 10	10 to 100	Cc1c(=O)n(C)c(Nc2ccc(I)cc2F)c2c(=O)n(C3CC3)c(=O)n(-c3cccc(N4CCNC4=O)c3)c12 [Example 4-124]	≥ 1.5	≥ 1.5
10 to 100	100 to 1000	CC(=O)Nc1cccc(-n2c(=O)n(C3CC3)c(=O)c3c(Nc4ccc(C)cc4F)n(C)c(=O)c(C)c32)c1 [Example 4-56]	≥ 1.5	≥ 1.5
< 10	10 to 100	CCCCC(=O)NCCC(=O)Nc1cccc(-n2c(=O)n(C3CC3)c(=O)c3c(Nc4ccc(I)cc4F)n(C)c(=O)c(C)c32)c1 [Example 4-12]	≥ 1.5	≥ 1.5
< 10	10 to 100	CC(=O)Nc1cccc(-n2c(=O)n(C3CC3)c(=O)c3c(Nc4ccc(C(C)C)cc4F)n(C)c(=O)c(C)c32)c1 [Example 4-98]	≥ 1.5	≥ 1.5
10 to 100	100 to 1000	CCc1ccc(Nc2c3c(=O)n(C4CC4)c(=O)n(-c4ccc(NS(C)(=O)=O)cc4)c3c(C)c(=O)n2C)c(F)c1 [Example 4-78]	≥ 1.5	≥ 1.5
10 to 100	100 to 1000	C#Cc1ccc(Nc2c3c(=O)n(C4CC4)c(=O)n(-c4ccc(F)c(NC(C)=O)c4)c3c(C)c(=O)n2C)c(F)c1 [Example 4-102]	≥ 1.5	≥ 1.5
10 to 100	100 to 1000	Cc1c(=O)n(C)c(Nc2ccc(I)cc2F)c2c(=O)n(C3CC3)c(=O)n(-c3cc(Cl)cc(NS(C)(=O)=O)c3)c12 [Example 4-64]	≥ 1.5	≥ 1.5
